According to patent US20150064172A1, “METHODS OF TREATING A DISEASE OR DISORDER ASSOCIATED WITH BRUTON'S TYROSINE KINASE” (Celgene Avilomics Research, Inc., priority 2013, published 2015):
Where two headings read alike, the source gives them in different places.

How the values were obtained:
[1] = tested on: CLL; assay: Compound 1 besylate monotherapy in patients with CLL; assay type: in vivo
[2] = Solubility; assay type: physicochemical
[3] = Environmental stability (heat, acid, base); assay type: physicochemical
[4] = tested on: relapsed/refractory CLL; details: cited from earlier work
[5] = monotherapy, as of Sep. 11, 2012
[6] = 25 mg for 21 days of every 28-day cycle

C=CC(=O)Nc1cccc(Nc2nc(Nc3ccc(OCCOC)cc3)ncc2F)c1.O=S(=O)(O)c1ccccc1 [Compound 1 besylate, N-(3-(5-fluoro-2-(4-(2-methoxyethoxyl)phenylamino)pyrimidin-4-ylamino)phenyl)acrylamide benzenesulfonic acid salt]
patients who experienced early increases in absolute lymphocyte counts (ALC) [1, 5]: 28 of 33 | patients who experienced reductions in lymph node size [1, 5]: 15 of 23 | patients with CLL who experienced stable disease and continue on treatment [1, 5]: 35 out of 43 | solubility ([2]; ethanol, organic solvent or mixture, read-out: solubility in ethanol): ~10000 µg/mL | solubility ([2]; water, read-out: solubility in water): ~160 µg/mL | environmental instabilities (i.e. heat, acid, base) [3]: no environmental instabilities

C=CC(=O)Nc1cccc(Nc2nc(Nc3ccc(OCCOC)cc3)ncc2F)c1 [Compound 1, N-(3-(5-fluoro-2-(4-(2-methoxyethoxyl)phenylamino)pyrimidin-4-ylamino)phenyl)acrylamide]
maximum tolerated dose (MTD) ([1]; single agent): has not yet been reached

Nc1cccc2c1CN(C1CCC(=O)NC1=O)C2=O (centres unmarked) [lenalidomide, 3-(4-amino-1-oxo-1,3-dihydro-2H-isoindol-2-yl)piperidine-2,6-dione]
Complete Response [CR] [4, 6]: 18% | Partial Response [PR] [4, 6]: 36% | median progression-free survival (PFS) time [4, 6]: 19.4 months | median time to best response [4, 6]: 5.9 months | overall response [4, 6]: 53% | Clinical responses (CR or PR) ([4]; subjects refractory to fludarabine): 30% | Clinical responses (CR or PR) ([4]; subjects with del (11)(q23) and/or del (17)(p13.1) adverse cytogenetics): 47%
